Data as given in patent US6921770B2 (priority 2000, dated 2005).

Tested on: rice blast fungi
Format: in vivo, Pyricularia grisea
Conditions: not given

| Compound | Inhibiting Ratio (%) (at 250 ppm) |
| --- | --- |
| Br.CC(C)Oc1cc(N=c2scc(CC(=O)Nc3ccccc3)n2C)c(F)cc1Cl [Compound 69, 2-(4-chloro-2-fluoro-5-isoproxyphenylimino)-3-methyl-4-(N-phenylcarbamoylmethyl)-1,3-thiazol-4-ine hydrobromide] | 96% |
| Cl.Cn1c(CC(=O)Nc2ccc(Br)cc2)csc1=Nc1ccc([N+](=O)[O-])cc1 [Compound 144, 2-(4-nitrophenylimino)-3-methyl-4-[N-(4-bromophenyl)carbamoylmethyl]-1,3-thiazol-4-ine hydrochloride] | 97% |
| Cc1cccc(NC(=O)Cc2csc(=Nc3cc(OC(C)C)c(Cl)cc3F)n2C)c1 [Compound 333, 2-(2-fluoro-4-chloro-5-isopropoxyphenylimino)-3-methyl-4-[N-(3-methylphenyl)carbamoylmethyl]-1,3-thiazol-4-ine] | 98% |
| COc1ccc(N=c2scc(CC(=O)Nc3ccccc3F)n2C)cc1.Cl [Compound 78, 2-(4-methoxyphenylimino)-3-methyl-4-[N-(2-fluorophenyl)carbamoylmethyl]-1,3-thiazol-4-ine hydrochloride] | 91% |
| Cc1ccc(NC(=O)Cc2csc(=Nc3cc(OC(C)C)c(Cl)cc3F)n2C)cc1Cl.Cl [Compound 257, 2-(4chloro-2-fluoro-5-isopropoxyphenylimino)-3-methyl-4-[N-(3-chloro-4-methylphenyl)carbamoylmethyl]-1,3-thiazol-4-ine hydrochloride] | 88% |
| Cc1ccc(NC(=O)Cc2csc(=Nc3ccccc3F)n2C)cc1Cl.Cl [Compound 235, 2-(2-fluorophenylimino)-3-methyl-4-[N-(3-chloro-4-methylphenyl)carbamoylmethyl]-4-thiazoline hydrochloride] | 92% |
| 2-(2,4-dichloromethylphenylimino)-3-methyl-4-[N-(3-chlorophenyl)carbamoylmethyl]-1,3-thiazol-4-ine hydrobromide [Compound 60] | 100% |
| Br.Cc1ccc(NC(=O)Cc2csc(=Nc3ccc(C#N)cc3)n2C)cc1 [Compound 46] | 100% |
| Br.Cn1c(CC(=O)Nc2cccc(Cl)c2)csc1=Nc1ccc(C(F)(F)F)cc1 [Compound 20, 2-(4-trifluoromethylphenylimino)-3-methyl-4-[N-(3-chlorophenyl)carbamoylmethyl]-1,3-thiazol-4-ine hydrobromide] | 91% |
| Cl.Cn1c(CC(=O)Nc2ccc(Br)cc2)csc1=Nc1ccc(C(F)(F)F)cc1 [Compound 132, 2-(4-trifluoromethylphenylimino)-3-methyl-4-[N-(4-bromophenyl)carbamoylmethyl]-1,3-thiazol-4-ine hydrochloride] | 99% |
| Cl.Cn1c(CC(=O)Nc2ccc(Cl)cc2)csc1=Nc1ccc(F)c(Cl)c1 [Compound 155, 2-(3-chloro-4-fluorophenylimino)-3-methyl-4-[N-(4-chlorophenyl)carbamoylmethyl]-1,3-thiazol-4-ine hydrochloride] | 96% |
| Br.COc1ccc(NC(=O)Cc2csc(=Nc3ccccc3OC)n2C)cc1 [Compound 311, 2-(2-methoxyphenylimino)-3-methyl-4-[N-(4-methoxyphenyl)carbamoylmethyl]-1,3-thiazol-4-ine hydrobromide] | 95% |
| Br.Cc1ccc(NC(=O)Cc2csc(=Nc3ccc(Cl)cc3C)n2C)cc1 [Compound 32, 2-(4-chloro-2-methylphenylimino)-3-methyl-4-[N-(4-methylphenyl)carbamoylmethyl]-1,3-thiazol-4-ine hydrobromide] | 100% |
| Br.COc1ccc(NC(=O)Cc2csc(=Nc3ccc(Oc4ccccc4)cc3)n2C)cc1 [Compound 320, 2-(4-phenoxyphenylimino)-3-methyl-4-[N-(4-methoxyphenyl)carbamoylmethyl]-1,3-thiazol-4-ine hydrobromide] | 100% |
| Br.Cn1c(CC(=O)Nc2cccc(Cl)c2)csc1=Nc1ccc(Cl)cc1F [Compound 66, 2-(4-chloro-2-fluorophenylimino)-3-methyl-4-[N-(3-chlorophenyl)carbamoylmethyl]-1,3-thiazol-4-ine hydrobromide] | 96% |
| Br.COc1ccc(NC(=O)Cc2csc(=Nc3cccc(C)c3)n2C)cc1 [Compound 328, 2-(3-methylphenylimino)-3-methyl-4-[N-(4-methoxyphenyl)carbamoylmethyl]-1,3-thiazol-4-ine hydrobromide] | 97% |
| Cc1ccc(NC(=O)Cc2csc(=Nc3cc(Cl)cc(Cl)c3)n2C)cc1Cl.Cl [Compound 230, 2-(3,5-dichlorophenylimino)-3-methyl-4-[N-(3-chloro-4-methylphenyl)carbamoylmethyl]-4-thiazoline hydrochloride] | 93% |

| Compound | Inhibiting Ratio (%) (at 250 ppm) |
| --- | --- |
| Br.Cn1c(CC(=O)Nc2ccc(Cl)cc2)csc1=Nc1ccc(Br)cc1 [Compound 317, 2-(4-bromophenylimino)-3-methyl-4-[N-(4-chlorophenyl)carbamoylmethyl]-1,3-thiazol-4-ine hydrobromide] | 100% |
| Br.CC(C)OC(=O)c1cc(N=c2scc(CC(=O)Nc3ccccc3)n2C)ccc1Cl [Compound 23, 2-(4-chloro-3-isopropyloxycarbonylphenylimino)-3-methyl-4-(N-phenylcarbamoylmethyl)-1,3-thiazol-4-ine hydrobromide] | 96% |
| CC(C)Oc1ccc(N=c2scc(CC(=O)Nc3ccccc3F)n2C)cc1.Cl [Compound 105, 2-(4-isopropoxyphenylimino)-3-methyl-4-[N-(2-fluorophenyl)carbamoylmethyl]-1,3-thiazol-4-ine hydrochloride] | 90% |
| Cc1ccc(NC(=O)Cc2csc(=Nc3ccc(F)c(Cl)c3)n2C)cc1Cl.Cl [Compound 238, 2-(3-chloro-4-fluorophenylimino)-3-methyl-4-[N-(3-chloro-4-methylphenyl)carbamoylmethyl]-1,3-thiazol-4-ine hydrochloride] | 93% |
| Cc1ccc(NC(=O)Cc2csc(=Nc3ccc(Br)cc3)n2C)cc1Cl.Cl [Compound 229, 2-(4-bromophenylimino)-3-methyl-4-[N-(3-chloro-4-methylphenyl)carbamoylmethyl]-4-thiazoline hydrochloride] | 93% |
| Cl.Cn1c(CC(=O)Nc2ccc(Br)cc2)csc1=Nc1ccc(F)cc1Cl [Compound 140, 2-(2-chloro-4-fluorophenylimino)-3-methyl-4-[N-(4-bromophenyl)carbamoylmethyl]-1,3-thiazol-4-ine hydrochloride] | 99% |
| Cl.Cn1c(CC(=O)Nc2ccccc2F)csc1=Nc1ccc(OC(F)(F)F)cc1 [Compound 79, 2-(4-trifluoromethoxyphenylimino)-3-methyl-4-[N-(2-fluorophenyl)carbamoylmethyl]-1,3-thiazol-4-ine hydrochloride] | 90% |
| Cc1ccc(NC(=O)Cc2csc(=Nc3ccc(Cl)cc3)n2C)cc1Cl.Cl [Compound 233, 2-(4-chlorophenylimino)-3-methyl-4-[N-(3-chloro-4-methylphenyl)carbamoylmethyl]-4-thiazoline hydrochloride] | 97% |
| Br.COc1ccc(N=c2scc(CC(=O)Nc3ccc(Cl)cc3)n2C)cc1 [Compound 308, 2-(4-methoxyphenylimino)-3-methyl-4-[N-(4-chlorophenyl)carbamoylmethyl]-1,3-thiazol-4-ine hydrobromide] | 99% |
| Cl.Cn1c(CC(=O)Nc2ccc([N+](=O)[O-])cc2)csc1=Nc1ccc(OC(F)(F)F)cc1 [Compound 176, 2-(4-trifluoromethoxyphenylimino)-3-methyl-4-[N-(4-nitrophenyl)carbamoylmethyl]-4-thiazoline hydrochloride] | 96% |
| Cc1ccc(N=c2scc(CC(=O)Nc3ccc(Br)cc3)n2C)c(C)c1.Cl [Compound 135, 2-(2,4-dimethylphenylimino)-3-methyl-4-[N-(4-bromophenyl)carbamoylmethyl]-1,3-thiazol-4-ine hydrochloride] | 98% |
| Cl.Cn1c(CC(=O)Nc2ccc(C#N)cc2)csc1=Nc1ccc(OC(F)(F)F)cc1 [Compound 215, 2-(4-trifluoromethoxyphenylimino)-3-methyl-4-[N-(4-cyanophenyl)carbamoylmethyl]-4-thiazoline hydrochloride] | 93% |
| Br.Cn1c(CC(=O)Nc2cccc(Cl)c2)csc1=Nc1cc(Cl)cc(Cl)c1 [Compound 21, 2-(3,5-dichlorophenylimino)-3-methyl-4-[N-(3-chlorophenyl)carbamoylmethyl]-1,3-thiazol-4-ine hydrobromide] | 88% |
| Cl.Cn1c(CC(=O)Nc2ccc(Cl)cc2)csc1=Nc1ccccc1F [Compound 160, 2-(2-fluorophenylimino)-3-methyl-4-[N-(4-chlorophenyl)carbamoylmethyl]-1,3-thiazol-4-ine hydrochloride] | 88% |
| Cl.Cn1c(CC(=O)Nc2ccc(Cl)cc2)csc1=Nc1ccc(Cl)cc1F [Compound 158, 2-(4-chloro-2-fluorophenylimino)-3-methyl-4-[N-(4-chlorophenyl)carbamoylmethyl]-1,3-thiazol-4-ine hydrochloride] | 90% |
| COc1ccc(NC(=O)Cc2csc(=Nc3ccc(C)cc3C)n2C)cc1.Cl [Compound 196, 2-(2,4-dimethylphenylimino)-3-methyl-4-[N-(4-methoxyphenyl)carbamoylmethyl]-1,3-thiazol-4-ine hydrochloride] | 92% |
| COc1ccc(C)cc1N=c1scc(CC(=O)Nc2ccc(C)c(Cl)c2)n1C.Cl [Compound 239, 2-(2-methoxy-5-methylphenylimino)-3-methyl-4-[N-(3-chloro-4-methylphenyl)carbamoylmethyl]-1,3-thiazol-4-ine hydrochloride] | 92% |

Same assay, conditions: hydrobromide

| Compound | Inhibiting Ratio (%) (at 250 ppm) |
| --- | --- |
| Br.Cc1cc(Cl)ccc1N=c1scc(CC(=O)Nc2cccc(Cl)c2)n1C [Compound 63, 2-(4-chloro-2-methylphenylimino)-3-methyl-4-[N-(3-chlorophenyl)carbamoylmethyl]-1,3-thiazol-4-ine hydrobromide] | 96% |
